Measured values as given in patent US5420128A, “Pyrimidine derivatives, method of manufacturing the same, and androgen inhibitor” (Otsuka Pharmaceutical Co., Ltd., priority 1990, dated 1995).

Columns and labels:
[1] = biological target: T1, rat prostate androgen receptor (Rattus norvegicus, UniProt P15207); assay: inhibitory activity on binding of ^3 H-5α-DHT on rat prostate androgen receptor; settings: ^3 H-5α-DHT 1 nM, rat ventral prostate cytosol, about 20 hours at 0° C.; read-out: Inhibitory activity on 5α-DHT specific binding [IC50 (M)]
T1 construct: the supernatant was obtained as cytoplasm fraction; from tissue; host or cells: cytosol (105000×g supernatant) of rat ventral prostate, 24 hours after castration
T1 sequence (P15207 1-902): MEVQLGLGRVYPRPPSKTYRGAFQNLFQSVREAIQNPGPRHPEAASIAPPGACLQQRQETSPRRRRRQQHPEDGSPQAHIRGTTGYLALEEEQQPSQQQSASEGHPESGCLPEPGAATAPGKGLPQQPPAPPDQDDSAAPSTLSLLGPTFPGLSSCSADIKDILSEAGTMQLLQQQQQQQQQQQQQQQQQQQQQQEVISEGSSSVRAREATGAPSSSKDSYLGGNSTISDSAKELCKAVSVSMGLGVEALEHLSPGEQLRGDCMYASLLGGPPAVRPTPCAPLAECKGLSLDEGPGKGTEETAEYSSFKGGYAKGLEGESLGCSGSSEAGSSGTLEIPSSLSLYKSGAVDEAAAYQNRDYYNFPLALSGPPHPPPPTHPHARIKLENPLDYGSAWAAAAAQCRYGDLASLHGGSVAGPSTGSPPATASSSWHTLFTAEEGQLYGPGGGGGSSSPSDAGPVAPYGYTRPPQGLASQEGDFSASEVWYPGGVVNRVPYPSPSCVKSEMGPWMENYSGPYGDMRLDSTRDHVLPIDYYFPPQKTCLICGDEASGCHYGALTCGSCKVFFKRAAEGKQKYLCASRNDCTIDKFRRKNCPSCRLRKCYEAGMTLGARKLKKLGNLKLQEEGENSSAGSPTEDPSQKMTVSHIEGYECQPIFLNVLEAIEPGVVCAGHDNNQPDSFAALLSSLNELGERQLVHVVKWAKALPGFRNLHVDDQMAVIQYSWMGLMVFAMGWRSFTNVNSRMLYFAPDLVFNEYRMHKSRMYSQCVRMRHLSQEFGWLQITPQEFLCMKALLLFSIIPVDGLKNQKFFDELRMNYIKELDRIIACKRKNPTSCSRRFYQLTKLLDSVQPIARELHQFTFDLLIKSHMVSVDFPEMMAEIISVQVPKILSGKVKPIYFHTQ
Method: The compounds obtained in Examples were evaluated in the following pharmacological studies A and B. The pharmacological study A was conducted in conformity with J.B.C. 256 (15) 7998-8005, 1981.
A. Measurement of inhibitory activity on binding of ^3 H-5α-[…] (^3 H-5α,-DHT) on rat prostate androgen receptor
(1) Preparation of cytosol from rat prostate
The rat was sacrificed 24 hours after castration, and the ventral lobe of prostate was removed, and was gently homogenized, on ice water bath, by using a Potter homogenizer in three-fold amount of 0.25M sucrose-TME buffer solution (50 mM tris-HCl (pH 7.4), 0.5 mM mercaptoethanol, and 0.1 mM EDTA-2 Na). The homogenate was filtrated through double gauze, and ultracentrifuged at 105000×g for 60 minutes, and the supernatant was used as androgen receptor.
(2) Measurement of ^3 H-5α-DHT specific binding on prostate cytoplasmic androgen receptor
To the cytosol obtained in (1), ^3 H-5α-DHT (47.8 Ci/mmol) was added, so that a final concentration is adjusted to 1 nM, and 0.25 M sucrose-TME buffer was added to adjust the final volume to 0.5 ml, and the reaction mixture was incubated for about 20 hours at 0° C. An ammonium sulfate solution dissolved in 0.25 M sucrose-TME buffer was mixed to be 35% saturation, and after standing for 90 minutes at 0° C., the mixture was centrifuged at 10000×g for 10 minutes at 4° C., and the precipitate was obtained.
This precipitate was suspended again in 0.8 ml of the above buffer solution, and furthermore in order to remove the free type ^3 H-5α-DHT, 0.2 ml of dextran-carbon powder suspension (4% activated carbon, 0.1% dextran T-70, and 0.1% gelatin dissolved in the above buffer solution) was added and mixed, and the mixture was let stand for 10 minutes at 0° C. At 4° C., in succession, the mixture was centrifuged at 3000×g for 10 minutes, and 0.5 ml of the supernatant was transferred into a vial, and 10 ml of aquasol-2 was added, and radioactivity was measured, and the total binding amount of ^3 H-5α-DHT on the prostate cytoplasma androgen receptor was determined. The nonspecific binding amount was similarly determined by adding a non-radioactive ligand (5α-DHT) to the reaction solution to a final concentration of 1 μM. The difference between the total binding amount and nonspecific binding amount was determined as the specific binding amount on the androgen receptor.
(3) Inhibitory activity of sample compounds on ^3 H-5α-DHT specific binding
The compounds obtained in Examples were incubated with ^3 H-5α-DHT at several concentrations same as in (2), and the specific binding amount of ^3 H-5α-DHT on the androgen receptor was determined. Comparing the obtained value with the value of (2), the IC50 value of the test compounds on ^3 H-5α-DHT specific binding was determined. The following compounds were used as the positive controls.

[2] = biological target: T1, rat prostate androgen receptor; assay: inhibitory activity on binding of ^3 H-mibolerone on rat prostate androgen receptor; settings: ^3 H-mibolerone 1 nM, triamcinolone acetonide 5 μM, rat ventral prostate cytosol, 20 hours at 0° C.; read-out: Inhibitory activity on mibolerone specific binding [IC50 (M)]
Method: B. Measurement of inhibitory activity on binding of ^3 H-mibolerone on rat prostate androgen receptor
The rat was sacrificed 24 hours after castration, and the ventral lobe of prostate was removed, and was gently homogenized, in ice-cooling water bath, at first by using Polytron and then using Potter type homogenizer, in three-fold amount of buffer solution A (1.5 mM EDTA, 2 mM dithiothreitol, 10 mM molybdate sodium, 10 % by volume of glycerol, 10 mM NaF, 25 mM phosphate sodium, pH 7.2). The obtained homogenate was filtrated through double gauze, and centrifuged at 105000×g for 60 minutes at 4° C., and the supernatant was obtained as cytoplasm fraction.
(2) Measurement of specific binding of ^3 H-mibolerone on prostate cytoplasm androgen receptor
To the cytoplasm fraction obtained in (1), ^3 H-mibolerone (87.0 Ci/mmol) was added, so that a final concentration is adjusted to 1 nM, and at the same time, in order to inhibit binding of ^3 H-mibolerone to progestin receptor, triamsinolone acetonide was added to a final concentration of 5 μM, and the final volume was adjusted to 0.4 ml with buffer solution A, and the reaction mixture was incubated for 20 hours at 0° C. After incubation, 0.5 ml of 60% hydroxylapatite slurry (washed and equilibrate with a buffer solution B: 10 mM NaH2 P04, 20 mM tris-hydrochloric acid, pH 7.2) was added, and incubated for 10 minutes at 0° C., the solution was transferred onto a glass fiber filter, and washed five times with 5 ml portions of buffer solution B containing 0.1% (weight/volume) of Triton X-100, to remove free ^3 H-mibolerone. This glass fiber was transferred into vial, and 10 ml of aquasol-2 was added, and the radioactivity was measured, and the total binding amount of ^3 H-mibolerone on prostate cytoplasm androgen receptor was determined.
The nonspecific binding amount was determined similarly by adding an unlabeled 5α-DHT in the reaction solution to a final concentration of 1 μM. The difference between the total binding amount and nonspecific binding amount was determined as the specific binding amount on the androgen receptor.
(3) Inhibitory activity of sample compounds on ^3 H-mibolerone specific binding
The compounds obtained in the experiments were added simultaneously with ^3 H-mibolerone at different concentrations to incubate same as in (2), and the specific binding amount of 3H-mibolerone on androgen receptor was determined. Comparing this value with the value obtained in (2), the IC50 value of inhibitory activity of the compounds on ^3 H-mibolerone specific binding was determined.

Compound	IC50 [1]	IC50 [2]
Cc1ccc(Sc2ccc(-c3cnn4c(O)ncnc34)cc2C)cc1 [Example 84, 4-Hydroxy-8-[3-methyl-4-(4-methylphenylthio)phenyl]pyrazolo[1,5-a]-1,3,5-triazine]	1.5e-06 M	–
CCc1ccccc1NS(=O)(=O)c1ccc(-c2cnn3c(O)ncnc23)cc1 [Example 91, 8-[4-(2-ethylphenylaminosulfonyl)phenyl]-4-hydroxypoyrazolo[1,5-a]-1,3,5-triazine]	< 5e-06 M	–
COc1cccc(Sc2ccc(-c3cnn4c(O)ncnc34)cc2C)c1 [Example 85, 4-Hydroxy-8-[4-(3-methoxyphenylthio)-3-methyl]phenylpyrazolo[1,5-a]-1,3,5-triazine]	1.6e-07 M	–
Cc1cc(-c2cnn3c(O)ccnc23)ccc1Sc1ccccc1 [Example 76, 7-Hydroxy-3-(3-methyl-4-phenylthiophenyl)pyrazolo[1,5-a]pyrimidine]	–	2.3e-08 M
Oc1c(Cc2ccccc2)cnc2c(-c3ccc(Sc4ccccc4)cc3)cnn12 [Example 29, 7-Hydroxy-6-benzyl-3-(4-phenylthiophenyl)prazolo[1,5-a]pyrimidine]	–	2.5e-08 M
COc1ccccc1Cc1cnc2c(-c3ccc(Sc4ccccc4)cc3)cnn2c1O [Example 30, 7-Hydroxy-6-(2-methoxyphenylmethyl)-3-(4-phenylthiophenyl)pyrazolo[1,5-a]pyrimidine]	–	3.2e-07 M
CC(C)(C)NC(=O)c1cnc2c(-c3ccc(Sc4ccccc4)cc3)cnn2c1O [Example 46, 7-Hydroxy-3-(4-phenylthiophenyl)-6-(N-t-butyl)carbamoylpyrazolo[1,5-a]pyrimidine]	–	1.7e-07 M
Oc1c(Br)cnc2c(-c3ccc(Sc4ccccc4)cc3)cnn12 [Example 35, 7-Hydroxy-6-bromo-3-(4-phenylthiophenyl)pyrazolo[1,5a]pyrimidine]	–	8.8e-08 M
Cc1nc2c(-c3ccc(Sc4ccccc4)cc3)cnn2c(O)c1Cl [Example 37, 7-hydroxy-6-chloro-5-methyl-3-(4-phenylthiophenyl)pyrazolo[1,5-a]pyrimidine]	–	5.8e-07 M
Oc1c(C(O)c2ccccc2)cnc2c(-c3ccc(Sc4ccccc4)cc3)cnn12 (stereo not drawn) [Example 71, 7-Hydroxy-6-(α-hydroxybenzyl)-3-(4-phenylthiophenyl)pyrazolo[1,5-a]pyrimidine]	–	4.6e-07 M
CC(O)c1cnc2c(-c3ccc(Sc4ccccc4)cc3)cnn2c1O (stereo not drawn) [Example 70, 7-Hydroxy-6-(1-hydroxyethyl)-3-(4-phenylthiophenyl)pyrazolo[1,5-a]pyrimidine]	–	1.55e-07 M
COc1ccccc1-c1cnc2c(-c3ccc(Sc4ccccc4)cc3)cnn2c1O [Example 53, 7-Hydroxy-6-(2-methoxyphenyl)-3-(4-phenylthiophenyl)pyrazolo[1,5-a]pyrimidine]	–	3e-07 M
O=C(c1cnc2c(-c3ccc(Sc4ccccc4)cc3)cnn2c1O)C(F)(F)F [Example 69, 7-Hydroxy-6-trifluoroacetyl-3-(4-phenylthiophenyl)pyrazolo[1,5-a]pyrimidine]	–	8.8e-07 M
O=C(Nc1ccccc1)c1cnc2c(-c3ccc(Sc4ccccc4)cc3)cnn2c1O [Example 42, 7-Hydroxy-6-(N-phenylcarbamoyl)-3-(4-phenylthiophenyl)pyrazolo[1,5-a]pyrimidine]	–	3e-06 M
CCc1cc(O)n2ncc(-c3ccc(Sc4ccccc4)cc3)c2n1 [Example 6, 7-Hydroxy-5-ethyl-3-(4-phenylthiophenyl)pyrazolo[1,5-a]pyrimidine]	–	9e-07 M
CC(=O)c1cnc2c(-c3ccc(Sc4ccccc4)cc3)cnn2c1O [Example 67, 7-Hydroxy-6-acetyl-3-(4-phenylthiophenyl)pyrazolo[1,5-a]pyrimidine]	–	3.4e-08 M
O=C(O)Cc1cnc2c(-c3ccc(Sc4ccccc4)cc3)cnn2c1O [Example 40, 7-Hydroxy-6-carboxymethyl-3-(4-phenylthiophenyl)pyrazolo[1,5-a]pyrimidine]	–	2.2e-08 M
CCc1cnc2c(-c3ccc(Sc4ccccc4)cc3)cnn2c1O [Example 25, 7-Hydroxy-6-ethyl-3-(4-phenylthiophenyl)pyrazolo[1,5-a]pyrimidine]	–	1.6e-07 M
N#Cc1cnc2c(-c3ccc(Sc4ccccc4)cc3)cnn2c1O [Example 47, 7-Hydroxy-6-cyano-3,(4-phenylthiophenyl)pyrazolo[1,5-a]pyrimidine]	–	5e-08 M
Oc1c(C2CCCCC2)cnc2c(-c3ccc(Sc4ccccc4)cc3)cnn12 [Example 27, 7-Hydroxy-6-cyclohexyl-3-(4-phenylthiophenyl)pyrazolo[1,5-a]pyrimidine]	–	1.3e-07 M
Oc1c(CCc2ccccc2)cnc2c(-c3ccc(Sc4ccccc4)cc3)cnn12 [Example 28, 7-Hydroxy-6-phenethyl-3-(4-phenylthiophenyl)pyrazolo[1,5-a]pyrimidine]	–	> 5e-06 M
Oc1cc(C(F)(F)F)nc2c(-c3ccc(Sc4ccccc4)cc3)cnn12 [Example 13, 7-Hydroxy-5-trifluoromethyl-3-(4-phenylthiophenyl)pyrazolo[1,5-a]pyrimidine]	–	2e-06 M
Oc1c(-c2ccc(F)cc2)cnc2c(-c3ccc(Sc4ccccc4)cc3)cnn12 [Example 55, 7-Hydroxy, 6-(4-fluorophenyl)-3-(4-phenylthiophenyl)pyrazolo[1,5-a]pyrimidine]	–	6.6e-08 M
Oc1c2c(nc3c(-c4ccc(Sc5ccccc5)cc4)cnn13)CCC2 [Example 11, 5H-6,7-Dihydro-8-hydroxy-3-(4-phenylthiophenyl)cyclopenta[d]pyrazolo[1,5-a]pyrimidine]	–	4.2e-07 M
Oc1cc(CCl)nc2c(-c3ccc(Sc4ccccc4)cc3)cnn12 [Example 9, 7-Hydroxy-5-chloromethyl-3-(4-phenylthiophenyl)pyrazolo[1,5-a]pyrimidine]	–	3.1e-05 M
OCCc1cnc2c(-c3ccc(Sc4ccccc4)cc3)cnn2c1O [Example 60, 7-Hydroxy-6-(2-hydroxyethyl)-3-(4-phenylthiophenyl)pyrazolo[1,5-a]pyrimidine]	–	3.9e-08 M
Oc1cc(C2CC2)nc2c(-c3ccc(Sc4ccccc4)cc3)cnn12 [Example 8, 7-Hydroxy-5-cyclopropyl-3-(4-phenylthiophenyl)pyrazolo[1,5-a]pyrimidine]	–	1.7e-06 M
7-Hydroxy-6-ethoxycarbonylmethyl-3-(4-phenylthiophenyl)pyrazolo[1,5-a]pyrimidine [Example 34]	–	2.9e-07 M
Oc1c(F)cnc2c(-c3ccc(Sc4ccccc4)cc3)cnn12 [Example 22]	–	5.2e-08 M
COc1cccc(-c2cnc3c(-c4ccc(Sc5ccccc5)cc4)cnn3c2O)c1 [Example 54, 7-Hydroxy-6-(3-methoxyphenyl)-3-(4-phenylthiophenyl)pyrazolo[1,5-a]pyrimidine]	–	7.6e-07 M
